Experimental data taken from the supplement of paper PMC10307832.

How the values were obtained:
Experiment in all cases: relative viability (nuclei count vs DMSO), 5 days (fraction); higher = more cells survive
[1] = compound: CN1C=C(C2=CC=CC=C21)/C=C\3/C4=C(C=CC=N4)NC3=O + CC(=O)Nc1cccc(-n2c(=O)n(C3CC3)c(=O)c3c(Nc4ccc(I)cc4F)n(C)c(=O)c(C)c32)c1 [Trametinib] (partner 0.02 µM)
Outline: (§1)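 A single step with final 0.05% Triton X-100, 1% formaldehyde and 1 ug/ml Hoechst fixed the cells and stained nuclei 5 days after treatment. Lung cancer cell lines in 1536-well plates had been treated by pin tool the day after seeding with one drug alone or a fixed anchor-drug dose plus five library-drug doses (not always all listed) in √10 steps, and nuclei were counted on 4× images. Relative viability is the ratio of nuclei in treated wells to nuclei in vehicle wells, taken as the median of duplicate plates.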

[2] = compound: CN1C=C(C2=CC=CC=C21)/C=C\3/C4=C(C=CC=N4)NC3=O + Cc1cc(Nc2cc(N3CCN(C)CC3)nc(Sc3ccc(NC(=O)C4CC4)cc3)n2)n[nH]1 [Tozasertib] (partner 0.1 µM)
Outline: as §1

[3] = compound: CN1C=C(C2=CC=CC=C21)/C=C\3/C4=C(C=CC=N4)NC3=O + CS(=O)(=O)CCNCc1ccc(-c2ccc3ncnc(Nc4ccc(OCc5cccc(F)c5)c(Cl)c4)c3c2)o1 [Lapatinib] (partner 2 µM)
Outline: as §1

Trametinib + Decitabine = compound: CC(=O)Nc1cccc(-n2c(=O)n(C3CC3)c(=O)c3c(Nc4ccc(I)cc4F)n(C)c(=O)c(C)c32)c1 [Trametinib] + Nc1ncn([C@H]2C[C@H](O)[C@@H](CO)O2)c(=O)n1 [Decitabine] (partner 2 µM)
Outline: as §1

Cell Line	relative viability ([1]; first compound 0.02 µM)	relative viability ([1]; first compound 0.06325 µM)	relative viability ([1]; first compound 0.2 µM)	relative viability ([1]; first compound 0.6325 µM)	relative viability ([1]; first compound 2 µM)	relative viability ([2]; first compound 0.02 µM)	relative viability ([2]; first compound 0.06325 µM)	relative viability ([2]; first compound 0.2 µM)	relative viability ([2]; first compound 0.6325 µM)	relative viability ([2]; first compound 2 µM)	relative viability ([3]; first compound 0.02 µM)	relative viability ([3]; first compound 0.06325 µM)	relative viability ([3]; first compound 0.2 µM)	relative viability ([3]; first compound 0.6325 µM)	relative viability ([3]; first compound 2 µM)	relative viability (Trametinib + Decitabine; first compound 0.0025 µM)	relative viability (Trametinib + Decitabine; first compound 0.007906 µM)	relative viability (Trametinib + Decitabine; first compound 0.025 µM)	relative viability (Trametinib + Decitabine; first compound 0.07906 µM)	relative viability (Trametinib + Decitabine; first compound 0.25 µM)
NCI-H1755	0.782	0.83	0.76	0.737	0.696	0.56	0.557	0.605	0.502	0.509	0.966	0.918	0.903	0.959	0.958	0.72	0.703	0.679	0.678	0.594
HCC-15	0.411	0.392	0.403	0.377	0.367	0.322	0.406	0.493	0.346	0.531	0.827	0.71	0.903	0.886	0.932	0.519	0.464	0.501	0.248	0.234
NCI-H2087	0.149	0.208	0.153	0.189	0.215	0.227	0.245	0.249	0.189	0.212	1.28	0.757	0.968	0.949	1.07	0.207	0.203	0.148	0.117	0.125
NCI-H1650	0.559	0.535	0.559	0.582	0.53	0.41	0.366	0.454	0.334	0.35	0.854	0.793	0.574	0.768	0.842	0.39	0.467	0.369	0.399	0.206
LK-2		0.683	0.743	0.701	0.794				0.164	0.152		0.568		0.756	1.03	0.309	0.259	0.181	0.18	0.147
HCC-78	0.522	0.675	0.706	0.553	0.694	0.386	0.424		0.271	0.426	0.965	0.288	0.46	0.53	0.689	0.81	0.662	0.621	0.683	0.66
NCI-H1666	0.987	0.832	0.901	0.857	0.925	0.596	0.546	0.61	0.609	0.603	0.781	0.606	0.512	0.599	0.532	0.742	0.684	0.622	0.602	0.5
EKVX	0.268			0.233	0.201	0.297	0.422	0.402	0.355	0.38	0.221	0.148	0.156	0.188	0.167	0.36	0.351	0.326	0.372	0.222
